Measured values: patent publication US7964624B1, “Inhibitors of serine proteases” (priority 2005, dated 2011)
pKi: −log10 of the molar value.

How the values were obtained:
[1] = target: T1, full-length hepatitis C viral protein NS3•4A (Hepatitis C virus genotype 1a, UniProt P27958); test: biochemical; design: species or system HCV sub-type strain 1a; settings: Enzyme Assay 2 (HCV NS3 Peptide Cleavage Assay) activity, apparent Ki class
T1 construct: hexa-histidine (N); made in house; host or cells: Sf9 insect cells (baculovirus, pVL1392)

[2] = target: T2, HCV NS3 protease domain (Hepatitis C virus genotype 1b, UniProt Q9WMX2); test: biochemical; settings: Enzyme Assay 1 (HCV NS3 Protease Domain Peptide Cleavage Assay) activity, apparent Ki class
T2 construct: The first 181 amino acids of NS3 (residues 1027-1207 of the viral polyprotein); hexa-histidine (C); made in house; host or cells: E. coli BL21/DE3 pLysS

CNC(=O)C(=O)C(CC1CCC1)NC(=O)[C@@H]1C[C@]2(CC(c3cccc(Cl)c3)=NO2)CN1C(=O)[C@@H](NC(=O)CC1CCOC(C)(C)C1)C(C)(C)C (some centres unmarked) [Compound 419]
pKi [1]: 6.30 to 7.00
pKi [2]: 6.30 to 7.00

CCC[C@H](NC(=O)[C@@H]1C[C@]2(CC(c3cccc(Cl)c3)=NO2)CN1C(=O)c1[nH]c2ccccc2c1CC(=O)N(CC)CC)C(=O)C(=O)NC1CC1 [Compound 420]
pKi [1]: < 6.30
pKi [2]: < 6.30

CCC[C@H](NC(=O)[C@@H]1C[C@]2(CC(c3cccc(Cl)c3)=NO2)CN1C(=O)[C@@H](NC(=O)CC1CCCCC1)C(C)(C)C)C(=O)C(=O)N1CC(C)(O)C1 [Compound 426]
pKi [1]: 6.30 to 7.00
pKi [2]: < 6.30

CCC[C@H](NC(=O)[C@@H]1C[C@]2(CC(c3cccc(Cl)c3)=NO2)CN1C(=O)[C@@H](NC(=O)CC1CCCCC1)C(C)(C)C)C(=O)C(=O)NC1(c2ccccc2)CC1 [Compound 429]
pKi [1]: < 6.30
pKi [2]: < 6.30

CCC[C@H](NC(=O)[C@@H]1C[C@]2(CC(c3cc(Cl)c4c(c3)CCCN4C)=NO2)CN1C(=O)[C@@H](NC(=O)CC1CCCCC1)C(C)(C)C)C(=O)C(=O)NC1CC1 [Compound 430]
pKi [1]: > 7.00
pKi [2]: 6.30 to 7.00

CCC[C@H](NC(=O)[C@@H]1C[C@]2(CC(c3cccc(Cl)c3)=NO2)CN1C(=O)[C@@H](NC(=O)CC1CCCCC1)C(C)(C)C)C(=O)C(=O)NCc1cc(-c2ccc(Cl)cc2)no1 [Compound 433]
pKi [1]: < 6.30
pKi [2]: < 6.30

CCC[C@H](NC(=O)[C@@H]1C[C@]2(CC(c3cccc(Cl)c3)=NO2)CN1C(=O)[C@H](CSC(C)(C)C)NC(=O)CC1CCCCC1)C(=O)C(=O)NC1CC1 [Compound 437]
pKi [1]: < 6.30
pKi [2]: < 6.30

C=C[C@@H]1C[C@]1(NC(=O)[C@@H]1C[C@]2(CC(CC)=NO2)CN1C(=O)[C@@H](NC(=O)OC1CCCC1)C(C)(C)C)C(=O)NS(=O)(=O)C1CC1 [Compound 438]
pKi [1]: 6.30 to 7.00
pKi [2]: < 6.30

C=C[C@@H]1C[C@]1(NC(=O)[C@@H]1C[C@]2(CC(c3cccc(Cl)c3)=NO2)CN1C(=O)[C@@H](NC(=O)OC(C)(C)C)C(C)(C)C)C(=O)O [Compound 439]
pKi [1]: < 6.30
pKi [2]: < 6.30

CCC[C@H](NC(=O)[C@@H]1C[C@]2(CC(c3cccc(Cl)c3)=NO2)CN1C(=O)[C@@H](NC(=O)CC1CCCCC1)C(C)(C)C)C(=O)C(=O)NCc1ccco1 [Compound 441]
pKi [1]: 6.30 to 7.00
pKi [2]: < 6.30

CCC[C@H](NC(=O)[C@@H]1C[C@]2(CC(c3cccc(Cl)c3)=NO2)CN1C(=O)[C@@H](NC(=O)CC1C[C@@H](C)O[C@@H](C)C1)C(C)(C)C)C(=O)C(=O)NC1CC1 (some centres unmarked) [Compound 442]
pKi [1]: > 7.00
pKi [2]: 6.30 to 7.00

C=C[C@@H]1C[C@]1(NC(=O)[C@@H]1C[C@]2(CC(c3cccc(Cl)c3)=NO2)CN1C(=O)[C@@H](NC(=O)OC1CCCC1)C(C)(C)C)C(=O)O [Compound 443]
pKi [1]: < 6.30
pKi [2]: < 6.30

CCC[C@H](NC(=O)[C@@H]1C[C@]2(CC(c3cccc(Cl)c3)=NO2)CN1C(=O)[C@@H](NC(=O)CC1CCC2(CC1)OCCO2)C(C)(C)C)C(=O)C(=O)NC1CC1 [Compound 445]
pKi [1]: > 7.00
pKi [2]: 6.30 to 7.00

CCC[C@H](NC(=O)[C@@H]1C[C@]2(CC(c3cccc(Cl)c3)=NO2)CN1C(=O)[C@@H](NC(=O)CC1CCCCC1)C(C)(C)C)C(=O)C(=O)NCCc1cccnc1 [Compound 447]
pKi [1]: 6.30 to 7.00
pKi [2]: < 6.30

CCC[C@H](NC(=O)[C@@H]1C[C@]2(CC(c3cccc(Cl)c3)=NO2)CN1C(=O)[C@@H](NC(=O)CC1CCCCC1)C(C)(C)C)C(=O)C(=O)N[C@H](C)CC [Compound 452]
pKi [1]: 6.30 to 7.00
pKi [2]: < 6.30

C=C[C@@H]1C[C@]1(NC(=O)[C@@H]1C[C@]2(CC(c3cccc(Cl)c3)=NO2)CN1C(=O)[C@@H](NC(=O)NC(C)(C)C)C(C)(C)C)C(=O)O [Compound 457]
pKi [1]: < 6.30
pKi [2]: < 6.30

CCC[C@H](NC(=O)[C@@H]1C[C@]2(CC(c3cccc(Cl)c3)=NO2)CN1C(=O)[C@@H](NC(=O)CC1CCCCC1)C(C)(C)C)C(=O)C(=O)NCCC1C(=O)Nc2ccccc21 (some centres unmarked) [Compound 458]
pKi [1]: < 6.30
pKi [2]: < 6.30

CCCC[C@H](NC(=O)CC1CCCCC1)C(=O)N1C[C@@]2(CC(c3cccc(Cl)c3)=NO2)C[C@H]1C(=O)N[C@@H](CCC)C(=O)C(=O)NC1CC1 [Compound 459]
pKi [1]: 6.30 to 7.00
pKi [2]: < 6.30

C=CCOC(=O)N[C@H](C(=O)N1C[C@@]2(CC(c3cccc(Cl)c3)=NO2)C[C@H]1C(=O)N[C@]1(C(=O)O)C[C@H]1C=C)C(C)(C)C [Compound 460]
pKi [1]: < 6.30
pKi [2]: < 6.30

CCC[C@H](NC(=O)[C@@H]1C[C@]2(CC(c3cccc(Cl)c3)=NO2)CN1C(=O)[C@@H](NC(=O)CC1CCCCC1)C(C)(C)C)C(=O)C(=O)NCc1ccncc1 [Compound 461]
pKi [1]: 6.30 to 7.00
pKi [2]: < 6.30

CCC[C@H](NC(=O)[C@@H]1C[C@]2(CC(c3cccc(Cl)c3)=NO2)CN1C(=O)C(NS(=O)(=O)c1ccc(F)cc1)c1ccccc1)C(=O)C(=O)NC1CC1 (some centres unmarked) [Compound 466]
pKi [1]: < 6.30
pKi [2]: < 6.30

CCC[C@H](NC(=O)[C@@H]1C[C@]2(CC(c3cccc(Cl)c3)=NO2)CN1C(=O)[C@@H](NC(=O)CC1CC2CCC1C2)C(C)(C)C)C(=O)C(=O)NC1CC1 (some centres unmarked) [Compound 467]
pKi [1]: > 7.00
pKi [2]: 6.30 to 7.00

CCC[C@H](NC(=O)[C@@H]1C[C@]2(CC(c3cccnc3OC)=NO2)CN1C(=O)[C@@H](NC(=O)CC1CCCCC1)C(C)(C)C)C(=O)C(=O)NC1CC1 [Compound 469]
pKi [1]: 6.30 to 7.00
pKi [2]: < 6.30

CCC[C@H](NC(=O)[C@@H]1C[C@]2(CC(c3cccc(Cl)c3)=NO2)CN1C(=O)[C@H](NS(=O)(=O)c1ccc(C)cc1)c1ccccc1)C(=O)C(=O)NC1CC1 [Compound 476]
pKi [1]: 6.30 to 7.00
pKi [2]: 6.30 to 7.00

CCC[C@H](NC(=O)[C@@H]1C[C@]2(CC(c3cccc(Cl)c3)=NO2)CN1C(=O)CCN(c1ccccc1)S(=O)(=O)c1ccccc1)C(=O)C(=O)NC1CC1 [Compound 483]
pKi [1]: < 6.30
pKi [2]: < 6.30

CCC[C@H](NC(=O)[C@@H]1C[C@]2(CC(c3cccc(Cl)c3)=NO2)CN1C(=O)[C@@H](NC(=O)CC1CCCCC1)C(C)(C)C)C(=O)C(=O)NCCOc1ccccc1OC [Compound 488]
pKi [1]: 6.30 to 7.00
pKi [2]: < 6.30

CCC[C@H](NC(=O)[C@@H]1C[C@]2(CC(c3cccc(Cl)c3)=NO2)CN1C(=O)[C@@H](NS(=O)(=O)c1ccc(OC)cc1)C(C)C)C(=O)C(=O)NC1CC1 [Compound 489]
pKi [1]: 6.30 to 7.00
pKi [2]: < 6.30

CCC[C@H](NC(=O)[C@@H]1C[C@]2(CC(c3cccc(Cl)c3)=NO2)CN1C(=O)[C@@H](NC(=O)CC1CCCCC1)C(C)(C)C)C(=O)C(=O)NC [Compound 493]
pKi [1]: > 7.00
pKi [2]: 6.30 to 7.00

CCC[C@H](NC(=O)[C@@H]1C[C@]2(CC(c3cccc(Cl)c3)=NO2)CN1C(=O)[C@@H](NC(=O)CC1CCCCC1)C(C)(C)C)C(=O)C(=O)N1CCCC1 [Compound 496]
pKi [1]: < 6.30
pKi [2]: < 6.30

CCC[C@H](NC(=O)[C@@H]1C[C@]2(CC(c3cc(Cl)c4c(c3)CCO4)=NO2)CN1C(=O)[C@@H](NC(=O)CC1CCCCC1)C(C)(C)C)C(=O)C(=O)NC1CC1 [Compound 499]
pKi [1]: > 7.00
pKi [2]: > 7.00

CCC[C@H](NC(=O)[C@@H]1C[C@]2(CC(c3ccc(OC)c(C)c3)=NO2)CN1C(=O)[C@@H](NC(=O)CC1CCCCC1)C(C)(C)C)C(=O)C(=O)NC1CC1 [Compound 500]
pKi [1]: > 7.00
pKi [2]: 6.30 to 7.00
